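Exposure lasted 48 hours, with cells grown in 96-well plates and compounds tested at five concentrations. TGI: concentration producing complete growth inhibition.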
Key:
Test in all cases: growth of human tumour cells (NCI), 48 h
786-0 renal = test system: 786-0 renal
A549 NSCLC = test system: A549 NSCLC
BT-549 breast = test system: BT-549 breast
CAKI-1 renal = test system: CAKI-1 renal
HOP-92 NSCLC = test system: HOP-92 NSCLC
MCF7 breast = test system: MCF7 breast
NCI/ADR-RES ovarian = test system: NCI/ADR-RES ovarian
OVCAR-4 ovarian = test system: OVCAR-4 ovarian
SK-OV-3 ovarian = test system: SK-OV-3 ovarian
SNB-19 CNS = test system: SNB-19 CNS
TK-10 renal = test system: TK-10 renal

**Q.** What does the source list for `Cc1cnc2c(c1C)C(=O)c1ccccc1C2=O`?
**A.** TGI (786-0 renal): > 100 µM; TGI (A549 NSCLC): > 100 µM; TGI (BT-549 breast): > 100 µM; TGI (CAKI-1 renal): > 100 µM; TGI (HOP-92 NSCLC): > 100 µM; TGI (MCF7 breast): > 100 µM; TGI (NCI/ADR-RES ovarian): > 100 µM; TGI (OVCAR-4 ovarian): 59.3 µM; TGI (SK-OV-3 ovarian): > 100 µM; TGI (SNB-19 CNS): > 100 µM; TGI (TK-10 renal): > 100 µM

**Q.** `CCCc1[nH]c2ccccc2c1-c1c(CCC)[nH]c2ccccc12` was tested. Which TGI (786-0 renal) did it give?
**A.** 31.4 µM

**Q.** What about the TGI (A549 NSCLC) of the same compound?
**A.** > 75.4 µM

**Q.** And the TGI (BT-549 breast)?
**A.** 35.6 µM

**Q.** What about the TGI (CAKI-1 renal) of the same compound?
**A.** 38.5 µM

**Q.** What about the TGI (HOP-92 NSCLC) of the same compound?
**A.** 62.4 µM

**Q.** What about the TGI (MCF7 breast) of the same compound?
**A.** 29.9 µM

**Q.** And the TGI (NCI/ADR-RES ovarian)?
**A.** 51.8 µM

**Q.** What about the TGI (OVCAR-4 ovarian) of the same compound?
**A.** > 68.2 µM

**Q.** And the TGI (SK-OV-3 ovarian)?
**A.** 65.5 µM

**Q.** What about the TGI (SNB-19 CNS) of the same compound?
**A.** 29.3 µM

**Q.** And the TGI (TK-10 renal)?
**A.** 50.9 µM

**Q.** Which TGI (786-0 renal) does the source give for `Clc1ccc2oc(CCc3ccccc3)nc2c1` here?
**A.** > 100 µM

**Q.** And the TGI (A549 NSCLC)?
**A.** > 100 µM

**Q.** What about the TGI (BT-549 breast) of the same compound?
**A.** > 100 µM

**Q.** What about the TGI (CAKI-1 renal) of the same compound?
**A.** > 100 µM

**Q.** And the TGI (HOP-92 NSCLC)?
**A.** > 100 µM

**Q.** What about the TGI (MCF7 breast) of the same compound?
**A.** > 100 µM

**Q.** What about the TGI (NCI/ADR-RES ovarian) of the same compound?
**A.** > 100 µM

**Q.** And the TGI (OVCAR-4 ovarian)?
**A.** > 100 µM

**Q.** And the TGI (SK-OV-3 ovarian)?
**A.** > 100 µM

**Q.** What about the TGI (SNB-19 CNS) of the same compound?
**A.** > 100 µM

**Q.** What about the TGI (TK-10 renal) of the same compound?
**A.** > 100 µM

**Q.** `COc1cccc(/N=N/C(=NNC(=O)c2ccc(C)cc2)c2ccc(N(C)C)cc2)c1` was tested. Which TGI (786-0 renal) did it give?
**A.** > 100 µM

**Q.** And the TGI (A549 NSCLC)?
**A.** > 100 µM

**Q.** What about the TGI (BT-549 breast) of the same compound?
**A.** > 100 µM

**Q.** What about the TGI (CAKI-1 renal) of the same compound?
**A.** > 100 µM

**Q.** And the TGI (HOP-92 NSCLC)?
**A.** > 100 µM

**Q.** And the TGI (MCF7 breast)?
**A.** > 100 µM

**Q.** And the TGI (NCI/ADR-RES ovarian)?
**A.** > 100 µM

**Q.** And the TGI (OVCAR-4 ovarian)?
**A.** > 100 µM

**Q.** What about the TGI (SK-OV-3 ovarian) of the same compound?
**A.** > 100 µM

**Q.** What about the TGI (SNB-19 CNS) of the same compound?
**A.** > 100 µM

**Q.** What about the TGI (TK-10 renal) of the same compound?
**A.** > 100 µM

**Q.** Which results are given for `COc1cccc(C(=O)C#Cc2cnc(OC)nc2OC)c1`?
**A.** TGI (786-0 renal): 3.61 µM; TGI (A549 NSCLC): 21.4 µM; TGI (BT-549 breast): 2.63 µM; TGI (CAKI-1 renal): 4.39 µM; TGI (HOP-92 NSCLC): 4.28 µM; TGI (MCF7 breast): 1.28 µM; TGI (NCI/ADR-RES ovarian): 4.83 µM; TGI (OVCAR-4 ovarian): 6.61 µM; TGI (SK-OV-3 ovarian): 44.9 µM; TGI (SNB-19 CNS): 34.8 µM; TGI (TK-10 renal): 2.91 µM

**Q.** With `COC(=O)C(Cc1c[nH]c2ccccc12)N=C1Nc2ccncc2S(=O)(=O)N1c1cccc(OC(C)C)c1` (configuration not stated) as the compound, how does the TGI (786-0 renal) read?
**A.** > 100 µM

**Q.** And the TGI (A549 NSCLC)?
**A.** > 100 µM

**Q.** What about the TGI (BT-549 breast) of the same compound?
**A.** > 100 µM

**Q.** And the TGI (CAKI-1 renal)?
**A.** > 100 µM

**Q.** And the TGI (HOP-92 NSCLC)?
**A.** 43.3 µM

**Q.** What about the TGI (MCF7 breast) of the same compound?
**A.** > 100 µM

**Q.** What about the TGI (NCI/ADR-RES ovarian) of the same compound?
**A.** > 100 µM

**Q.** What about the TGI (OVCAR-4 ovarian) of the same compound?
**A.** > 100 µM

**Q.** What about the TGI (SK-OV-3 ovarian) of the same compound?
**A.** > 100 µM

**Q.** What about the TGI (SNB-19 CNS) of the same compound?
**A.** > 100 µM

**Q.** And the TGI (TK-10 renal)?
**A.** > 100 µM

**Q.** What does the source list for `COc1ccc(C(=O)/C=C/c2ccc(OCC#N)cc2)cc1`?
**A.** TGI (786-0 renal): > 100 µM; TGI (A549 NSCLC): > 100 µM; TGI (BT-549 breast): 31.6 µM; TGI (CAKI-1 renal): 42 µM; TGI (HOP-92 NSCLC): 67.4 µM; TGI (MCF7 breast): 36.1 µM; TGI (NCI/ADR-RES ovarian): 50 µM; TGI (OVCAR-4 ovarian): > 100 µM; TGI (SK-OV-3 ovarian): > 100 µM; TGI (SNB-19 CNS): > 100 µM; TGI (TK-10 renal): > 100 µM
